Data on 22 compounds can be found in ChEMBL document CHEMBL5120788, “Structure-activity relationship studies of functionalized aromatic peptidomimetics as neurolysin activators” (Bioorg Med Chem Lett, 2022).

As a reminder, the EC50 is the concentration needed to bring the measured effect to its halfway point. Usually Emax stands for the maximal effect, on the per cent scale that the assay sets.

For data set [1], the target named is Neurolysin, mitochondrial (Rattus norvegicus, UniProt P42676). The experiment in a line: Activation of recombinant rat Nln using MCA-Pro-Leu-Gly-Pro-D-Lys (DNP)-OH as substrate preincubated for 10 mins followed by substrate addition and measured after 20 mins by fluorescence based assay.
Chain of Neurolysin, mitochondrial (P42676 whole entry): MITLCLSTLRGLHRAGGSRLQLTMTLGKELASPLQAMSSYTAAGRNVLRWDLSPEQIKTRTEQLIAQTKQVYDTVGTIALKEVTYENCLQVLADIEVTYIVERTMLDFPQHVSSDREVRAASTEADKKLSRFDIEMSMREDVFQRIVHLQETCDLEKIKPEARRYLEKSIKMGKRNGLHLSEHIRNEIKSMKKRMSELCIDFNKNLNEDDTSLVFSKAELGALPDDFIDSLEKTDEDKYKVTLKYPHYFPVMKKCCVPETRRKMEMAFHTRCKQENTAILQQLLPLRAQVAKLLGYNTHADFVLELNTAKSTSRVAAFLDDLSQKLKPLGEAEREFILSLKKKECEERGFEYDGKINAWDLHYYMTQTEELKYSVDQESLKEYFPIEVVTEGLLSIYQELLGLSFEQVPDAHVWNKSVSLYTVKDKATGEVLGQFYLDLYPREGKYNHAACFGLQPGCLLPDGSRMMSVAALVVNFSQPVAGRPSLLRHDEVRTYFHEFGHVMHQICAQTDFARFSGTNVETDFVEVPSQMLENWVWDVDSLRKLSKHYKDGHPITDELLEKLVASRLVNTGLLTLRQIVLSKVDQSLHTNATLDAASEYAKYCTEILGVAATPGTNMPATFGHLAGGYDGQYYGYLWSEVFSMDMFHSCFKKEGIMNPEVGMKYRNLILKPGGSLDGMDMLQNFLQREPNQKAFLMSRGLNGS
Data set [2] has as its target Neurolysin, mitochondrial (Rattus norvegicus) (UniProt P42676). The experiment in a line: Activation of recombinant rat Nln assessed as maximal efficacy using MCA-Pro-Leu-Gly-Pro-D-Lys (DNP)-OH as substrate preincubated for 10 mins followed by substrate addition and measured after 20 mins by fluorescence based assay relative to control. Conditions: filed as activator, time 30.0 min.

Data set [3] is described as follows: Permeability of compound in mouse BEND3 cells co-cultured with mouse primary astrocytes measured upto 120 mins by LC-MS/MS. Conditions: 2 h. Format: ADME, cell-based.

Chain of Neurolysin, mitochondrial (Rattus norvegicus) (P42676 38-704 limits assumed): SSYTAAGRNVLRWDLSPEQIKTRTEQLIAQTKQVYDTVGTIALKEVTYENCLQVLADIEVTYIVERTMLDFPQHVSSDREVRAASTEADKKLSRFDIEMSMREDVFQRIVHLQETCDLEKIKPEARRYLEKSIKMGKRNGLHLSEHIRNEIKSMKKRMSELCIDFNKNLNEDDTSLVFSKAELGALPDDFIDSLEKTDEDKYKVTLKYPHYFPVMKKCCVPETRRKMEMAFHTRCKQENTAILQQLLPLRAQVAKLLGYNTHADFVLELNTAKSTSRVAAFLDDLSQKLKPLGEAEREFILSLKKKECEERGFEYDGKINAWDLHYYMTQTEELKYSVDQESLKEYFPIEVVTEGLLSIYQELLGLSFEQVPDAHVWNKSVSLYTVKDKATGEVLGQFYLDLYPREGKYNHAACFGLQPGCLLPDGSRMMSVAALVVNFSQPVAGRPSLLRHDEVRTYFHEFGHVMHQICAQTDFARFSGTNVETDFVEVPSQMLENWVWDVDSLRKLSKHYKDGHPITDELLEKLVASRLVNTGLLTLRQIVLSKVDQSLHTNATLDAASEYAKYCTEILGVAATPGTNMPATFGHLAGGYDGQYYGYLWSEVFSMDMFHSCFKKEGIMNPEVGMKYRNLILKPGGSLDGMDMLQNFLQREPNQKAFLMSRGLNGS

Turning to `N[C@@H](Cc1c[nH]cn1)C(=O)Nc1ccc(C(F)(F)F)cc1C(F)(F)F`, the EC50 in data set [1] amounted to 25.2 µM. In addition, the Emax in data set [2] was 368%.
For `COc1ccc(NC(=O)[C@H](N)Cc2c[nH]cn2)cc1` the same measures were 214 µM and 540%.
The like results for `N[C@@H](Cc1c[nH]cn1)C(=O)Nc1cc(C(F)(F)F)cc(C(F)(F)F)c1` were, in that order, 279 µM and 633%.
The like results for `COc1ccccc1NC(=O)[C@H](N)Cc1c[nH]cn1` were, in that order, 53.5 µM and 428%.
Take `N[C@@H](Cc1c[nH]cn1)C(=O)Nc1cc(F)cc(F)c1`: the 50% effective concentration (EC50) in data set [1] was found to be 90.6 µM. Besides, the Emax in data set [2] came to 431%.
For `N[C@@H](Cc1c[nH]cn1)C(=O)Nc1ccccc1F` the same measures were 37.5 µM and 268%.
With `COc1cc(NC(=O)[C@@H](N)Cc2c[nH]cn2)cc(OC)c1OC`, the concentration for a half-maximal effect (EC50) in data set [1] turned out to be 117 µM. Besides, in data set [2], the maximal effect (Emax) is 436%.
The like results for `N[C@@H](Cc1c[nH]cn1)C(=O)Nc1c(F)cc(Br)cc1F` were, in that order, 26.7 µM and 370%.
For `N[C@H](Cc1c[nH]cn1)C(=O)Nc1cccc(F)c1` the same measures were 30.9 µM and 396%.
For `N[C@@H](Cc1c[nH]cn1)C(=O)Nc1cccc(F)c1` the same measures were 24.8 µM and 382%.
On to `N[C@H](Cc1c[nH]cn1)C(=O)Nc1ccc(C(F)(F)F)cc1`, for which the permeability result in data set [3] is reported as “Permeable”. The concentration giving a half-maximal response (EC50) in data set [1] was 15.6 µM. Besides, the Emax in data set [2] came out at 325%.
Consider `N[C@H](Cc1c[nH]cn1)C(=O)Nc1ccc(F)cc1`, for which, in data set [1], the EC50 is 36.1 µM. Moreover, the maximal response (Emax) in data set [2] was 403%.
Turning to `COc1cc(NC(=O)[C@@H](N)Cc2c[nH]cn2)cc(OC)c1`, the permeability entry in data set [3] is “Permeable”. In data set [1], the EC50 came out at 52.1 µM. The maximal effect (Emax) in data set [2] came to 463%.
For `N[C@@H](Cc1c[nH]cn1)C(=O)Nc1ccc(C(F)(F)F)cc1`, the concentration for a half-maximal effect (EC50) in data set [1] was found to be 32.2 µM. Also, in data set [2], the Emax was determined as 335%.
The like results for `COc1cccc(NC(=O)[C@@H](N)Cc2c[nH]cn2)c1` were, in that order, 105 µM and 454%.
Regarding `N[C@@H](Cc1c[nH]cn1)C(=O)Nc1cccc(C(F)(F)F)c1`, the concentration for a half-maximal effect (EC50) in data set [1] was determined as 28.6 µM. For the same compound, the maximal effect (Emax) in data set [2] is 312%.
For `COc1ccccc1NC(=O)[C@@H](N)Cc1c[nH]cn1` the same measures were 45.1 µM and 426%.
The like results for `N[C@H](Cc1c[nH]cn1)C(=O)Nc1ccccc1F` were, in that order, 78.2 µM and 331%.
With `COc1cccc(NC(=O)[C@H](N)Cc2c[nH]cn2)c1`, the half-maximal effective concentration (EC50) in data set [1] was 121 µM. Also, the Emax in data set [2] came to 478%.
For `N[C@H](Cc1c[nH]cn1)C(=O)Nc1cccc(C(F)(F)F)c1` the same measures were 22.8 µM and 362%.
The like results for `N[C@@H](Cc1c[nH]cn1)C(=O)Nc1ccc(F)cc1` were, in that order, 136 µM and 488%.
For `COc1ccc(NC(=O)[C@@H](N)Cc2c[nH]cn2)cc1` the same measures were 241 µM and 582%.
